In publication PMC5841658, “Anti-cancer characteristics and ototoxicity of platinum(II) amine complexes with only one leaving ligand” (PLoS ONE, 2018):

Key:
[1] = system: U-138 MG (HTB-16) glioblastoma cancer cell line; experiment: MTT cellular viability assay, HTB16; assay type: cell-based; conditions: HTB16 (glioma), 72 hours, ± standard deviation
Method: (§1) Cell lines were obtained from American Type Culture Collection (ATCC, Manassas, VA). […] Caco-2 (ATCC: HTB-37) colorectal cancer was grown in EMEM with 20% FBS and 1% penicillin/streptomycin. All cell lines were incubated at 37°C in 5% CO2 with passaging every 4–7 days. Cell culture media and supplements were obtained from ATCC, Atlanta Biologicals (Flowery Branch, GA), Mediatech (Tewksbury, MA), Fisher Scientific (Waltham, MA), Gibco (Gaithersburg, MD) and Sigma-Aldrich.
(§2) The MTT (3-(4,5-dimethylthiazol-2-yl)-2,5-diphenyltetrazolium bromide) cellular viability assay was performed in all three cancer cell lines and the non-cancer cell line. Following a protocol adapted from, cells were seeded at 5,000 cells per well in 96-well plates and incubated at 37°C in 5% CO2 in F-12K Medium or EMEM with FBS supplementation and 1% penicillin/streptomycin for 24 hours. Then, wells were treated in replicates of six according to a concentration series (500, 50, 5, 0.5, 0.05 μM) of specific platinum complexes for 72 hours. A negative control (media only), positive control (Triton X-100) and series of blanks were simultaneously performed. The MTT assay was run for 2 hours, then well contents were rapidly evacuated out and all wells were treated with MTT solubilization solution [10% Triton X-100 in acidic (0.1N HCl) isopropanol] for 15 minutes before the plates were read using a BioTek Synergy HT microplate plate reader (570 nm and 690 nm absorbance wavelengths). Reagents, cell culture media and supplements were obtained from ATCC, Atlanta Biologicals, Mediatech, Fisher Scientific, Gibco and Sigma-Aldrich.
(§3) GraphPad Prism v6 (La Jolla, CA) was used for all statistical analysis. Nuclear fraction platinum uptake as a total percent of combined nuclear and cytosolic uptake was analyzed using a one-way ANOVA (Brown-Forsyth test; p ≤ 0.05). IC50 values were calculated in Prism using the sigmoidal, 4PL, x is log(concentration) analysis feature or were calculated from Prism derived values using the equation y = mx + b. MTT assay standard deviation values were calculated using ED50plus v1.0 online software. AEP threshold data were analyzed by two-way ANOVA (Dunnett’s multiple comparisons test; p ≤ 0.05) and hair cell quantification data by two-way ANOVA (Tukey’s multiple comparisons test; p ≤ 0.05). AEP temporary threshold shifts (TTS) were calculated by subtracting the mean vehicle threshold for each frequency from each treatment threshold. TTS data were averaged across frequencies for each treatment and were analyzed by one-way ANOVA (Tukey’s multiple comparisons test; p ≤ 0.05).

[2] = system: Caco-2 colorectal cancer cell line; experiment: MTT cellular viability assay, Caco2; assay type: cell-based; conditions: 72 hours, ± standard deviation
Method: as §1, §2, §3

[3] = system: IMR-90 lung fibroblast control cell line; experiment: MTT cellular viability assay, IMR90; assay type: cell-based; conditions: IMR90 (fibroblast, non-cancer), 72 hours, ± standard deviation
Method: as §1, §2, §3

[4] = system: zebrafish saccule hair cells; experiment: Hair cell quantification, saccule; assay type: in vivo, Danio rerio; conditions: 25 mg/kg i.p., 48 hours; for effect on hair cell density in four regions of the saccule compared to vehicle: 5, 25, 50, 75% regions
Method: (§4) Zebrafish (Danio rerio) were purchased from a commercial supplier (Segrest Farms, Gibsonton, FL) and maintained in the animal facility of Western Kentucky University according to a protocol approved by the Institutional Animal Care and Use Committee. All zebrafish used in this study were a mix of male and female adult animals at least 6 months of age and were maintained according to standard methods.
(§5) After injection, fish were returned to holding tanks for either 24 or 48 hours and then subjected to hearing tests followed by hair cell quantification analysis.
Hair cell counts were performed from specific regions of the zebrafish saccule and utricle using established procedures. […] Prior to dissection, heads were rinsed three times for 10 minutes each at room temperature in phosphate buffer (pH 7.4, LabChem, Pittsburgh, PA) and the inner ear epithelia (saccule and utricle) were then carefully dissected out and trimmed. […] Tissue samples were then placed on glass slides and nuclei were labelled with Prolong Gold antifade reagent (4’,6-diamidino-2-phenylindole [DAPI], Life Technologies, Carlsbad, CA) and a cover-slip was placed over the samples for microscopy.
Saccule and utricle samples were viewed through the FITC filter of a Zeiss Axioplan2 epifluorescence microscope (Carl Zeiss, Jena, Germany) at 20X magnification and were then photographed using an AxioCam MRm camera. Cell counts were made from four regions of the saccule (5%, 25%, 50%, 75%) along the rostral-caudal length of the organ by placing a 50 μm x 50 μm box at each location and using the microscope cell counter feature. In the utricular samples, cell counts were made from three equidistant 50 μm x 50 μm boxes in both the extrastriolar and striolar regions.
as §3

[5] = system: zebrafish hearing thresholds; experiment: Auditory evoked potential (AEP) testing in zebrafish inner ear model; assay type: in vivo, Danio rerio; conditions: 25 mg/kg i.p.; for mean (± S.E.) temporary threshold shift (TTS), averaged across frequencies: 48 hours, vehicle threshold subtracted; for AEP hearing threshold, significance of pairwise comparison against cisplatin / AEP hearing threshold, significance of pairwise comparison against vehicle: 48 h
Method: as §4, §5
Auditory evoked potential (AEP) testing was performed on individual fish according to standard protocols. […] After harness placement was complete, three 27 gauge stainless steel electrodes (Rochester Electro-Medical, Inc., Lutz, FL) were inserted approximately 2 mm subdermally to record AEPs. A reference electrode was inserted into the medial dorsal surface of the head, a recording electrode directly over the brainstem and a ground electrode in the tail musculature. Sound stimuli (tone pips) were presented to each fish at 8 frequencies (100, 250, 400, 600, 800, 1000, 1500 and 3000 Hz) and AEP waveforms were collected using a TDT System III physiology apparatus (Tucker-Davis Technologies Inc., Alachua, FL) running SigGen and BioSig software. Auditory stimuli were passed through a P1000 power amplifier (Hafler, Port Coquitlam, BC) and presented with a University Sound UW-30 underwater speaker (Electro-Voice, Fairport, NY). Sound pressure levels were confirmed using a Type 10CT hydrophone (G.R.A.S., Holte, Denmark) placed adjacent to the mesh harness. Auditory thresholds were determined in 5 dB increments by visual inspection of AEP waveforms.
as §3

Row | Compound | IC50 [1] [µM] | IC50 [2] [µM] | IC50 [3] [µM] | effect on hair cell density in four regions of the saccule compared to vehicle [4] | mean (± S.E.) temporary threshold shift (TTS), averaged across frequencies [5] [dB] | AEP hearing threshold, significance of pairwise comparison against cisplatin ([5]; 100 Hz) | AEP hearing threshold, significance of pairwise comparison against vehicle ([5]; 100 Hz) | AEP hearing threshold, significance of pairwise comparison against cisplatin ([5]; 250 Hz) | AEP hearing threshold, significance of pairwise comparison against vehicle ([5]; 250 Hz) | AEP hearing threshold, significance of pairwise comparison against cisplatin ([5]; 400 Hz) | AEP hearing threshold, significance of pairwise comparison against vehicle ([5]; 400 Hz) | AEP hearing threshold, significance of pairwise comparison against cisplatin ([5]; 600 Hz) | AEP hearing threshold, significance of pairwise comparison against vehicle ([5]; 600 Hz) | AEP hearing threshold, significance of pairwise comparison against cisplatin ([5]; 800 Hz) | AEP hearing threshold, significance of pairwise comparison against vehicle ([5]; 800 Hz) | AEP hearing threshold, significance of pairwise comparison against cisplatin ([5]; 1000 Hz) | AEP hearing threshold, significance of pairwise comparison against vehicle ([5]; 1000 Hz) | AEP hearing threshold, significance of pairwise comparison against cisplatin ([5]; 1500 Hz) | AEP hearing threshold, significance of pairwise comparison against vehicle ([5]; 1500 Hz) | AEP hearing threshold, significance of pairwise comparison against cisplatin ([5]; 3000 Hz) | further results
1 | [Cl][Pt-2]12[NH2+]CC[NH+]1CC[NH2+]2 (centres unmarked) [[Pt(dien)Cl]^+, Pt(diethylenetriamine)Cl] | 209 ± 42.3 | 41.5 ± 0.72 | 56 ± 6.1 | no significant reduction in hair cell bundles | 12.0 ± 3.0 | ns (ns, p > 0.05) | * (* p ≤ 0.05) | ns (ns, p > 0.05) | ns (ns, p > 0.05) | ns (ns, p > 0.05) | **** (**** p ≤ 0.0001) | ns (ns, p > 0.05) | **** (**** p ≤ 0.0001) | ns (ns, p > 0.05) | **** (**** p ≤ 0.0001) | ns (ns, p > 0.05) | **** (**** p ≤ 0.0001) | ns (ns, p > 0.05) | ns (ns, p > 0.05) | ns (ns, p > 0.05) | AEP hearing threshold, significance of pairwise comparison against vehicle ([5]; 3000 Hz): * (* p ≤ 0.05)
2 | phenanthriplatin | 2.41 ± 0.11 | 1.6 ± 1.22 | 1.24 ± 0.48 | reduction only at 50% | 13.3 ± 2.9 | * (* p ≤ 0.05) | *** (*** p ≤ 0.001) | ns (ns, p > 0.05) | ns (ns, p > 0.05) | ns (ns, p > 0.05) | *** (*** p ≤ 0.001) | ns (ns, p > 0.05) | ** (** p ≤ 0.01) | * (* p ≤ 0.05) | **** (**** p ≤ 0.0001) | * (* p ≤ 0.05) | **** (**** p ≤ 0.0001) | ns (ns, p > 0.05) | ns (ns, p > 0.05) | ** (** p ≤ 0.01) | saccule hair cell density, % of control ([4]; 50% location along rostral-caudal axis): 64.8 % of control; mean (± S.E.) temporary threshold shift (TTS), averaged across frequencies ([5]; listed as phenanthriplatin): 13 dB; AEP hearing threshold, significance of pairwise comparison against vehicle ([5]; 3000 Hz): **** (**** p ≤ 0.0001)
